Data reported in patent US11293015B2, “Diels-Alderase and use thereof” (Peking University, priority 2020, dated 2022).

B1: MaDA: Diels-Alderase identified from Morus alba, amino acid sequence SEQ ID No.1 (protein)
chain: MQYFSFPSSLAKITIFLIFSFVFASSANDTHEAFLECLTTRIPSNSTFTPQSIIYTPDNPSYSTILDSTTQNPRFLSSSTRNPFAIITPLHASHIQAALYCSQKHGEQMRIRSGGHDYEGLSYQSSVPFFILDLRNLSSISIDAKSKSAWVQAGATIGELYYGIAKTSLNLSFPGGVAHTIGVGGQLGGGGYGYSTRKYGLASDNVIDAQLIDARGRILDRKTMGEDLFWAIRGGGAGSFGIVLAWKIRLVNTPSTVTIFEAVRSWENNTTKKFIRRYQRRASKTDKDLTIFVGFRTTSSTDEEGNERISILTIVSATFHGSKDRLLQLVQKEFPDLGLVSEECTEMSWVRSIIHFNLFGDEVPLEVLLNRTLNFEMKAFKLRSDYVQKPIPDDVLEKLLSKLYDEETGEGYIEFFPYGGKMSKISESEIPFPYRAGNLYNLRYMVSWKDDGNITRTNMHLSWIKDAYDYMTPYVSKDPRGAYLNFRDLDIGVNVNESDYDYVAKASVWGTKYFRNNFYRLVDIKTIVDPTNFFKYEQSIPPLPPLHSAM

Key:
MaDA-1 = assay: Enzymatic activity test for MaDA-1; format: biochemical, Morus alba; settings: Diene 3 100 μM, Dienophile 1 100 μM, SUMO-MaDA-1 27 nM, pH 8.0, 50° C., 10 min
Experimental: (§1) The activity of MaDA-1 was tested as follows: to a 97 μL reaction buffer (20 mm Tris-HCl, pH=8.0), 1 μL of Diene 3 (final concentration of 100 μM) and 1 […] (final concentration of 100 μM) were added, and then 1 μL of SUMO-MaDA protein (final concentration 27 nM) or SUMO-MaDA-1 (final concentration 27 nM) was added. The reaction mixture was reacted at 50° C. for 10 min, then quenched by adding 200 μL methanol, and centrifuged at 13,000 rpm for 30 min. The supernatant was analyzed by HPLC. In the control group as blank control, no protein was added.

MaDA [1] = assay: Enzymatic activity test, MaDA run alongside MaDA-1; format: biochemical, Morus alba; settings: Diene 3 100 μM, Dienophile 1 100 μM, SUMO-MaDA 27 nM, pH 8.0, 50° C., 10 min
Experimental: as §1

MaDA-2 = assay: Activity test of MaDA-2; format: biochemical, Morus alba; settings: dienophile 100 μM, Diene 3, 22, 23 or 24 100 μM, SUMO-MaDA-2 54 nM, pH 8.0, 50° C., 5 min
Experimental: Under the catalyzation of MaDA-2, the reaction activity between Dienophile 1 and different dienes 3, 22, 23 and 24 was measured following the protocol as follows: to a […] reaction buffer (20 mm Tris-HCl, pH=8.0), 1 μL of Dienophile 1 (final concentration of 100 μM) and 1 μL Diene 3, 22, 23 or 24 (final concentration of 100 μM) were added, and then 1 μL of SUMO-MaDA-2 (final concentration 54 nM) was added. The reaction mixture was reacted at 50° C. for 5 min, then quenched by adding 200 μL methanol. The reaction solution was analyzed by HPLC under the analysis conditions mentioned above, and the results were shown in FIG. 20. […] However, unlike MaDA, MaDA-2 can recognize Dienophile 5 to generate corresponding natural products or their analogs.

MaDA [2] = assay: Conversion of dienophile substrates in the enzymatic D-A reaction; format: biochemical, Morus alba
Experimental: In the present Example, the conversion of Dienophiles 1 and 5-9 under enzymatic D-A reaction conditions were also determined. The reaction conditions were as follows:
To 96 μL reaction buffer (20 mM Tris-HCl, pH 8.0) was added 2 μL Diene 3 (final concentration, 200 μM) and 1 μL different chalcones or their derivatives (i.e., Dienophiles 1 and 5-9, final concentration, 100 μM). Then 1 μL MaDA or SUMO-MaDA (final concentration, 540 nM) was added. The resulting mixture was reacted at 50° C. for 5 min. The reactions were terminated by the addition of 200 μl of methanol. The reaction liquid were analyzed using the HPLC analysis condition mentioned above. After three repeated experiments, the conversion of Dienophiles 1, 7, 8, 9, 5 and 6 are determined as 74%, 55%, 13%, 78%, 0%, 71% respectively, as shown in FIG. 12.

[3] = Optimum temperature and pH of MaDA; format: biochemical; settings: Diene 3 0.1 mM, Dienophile 1 0.1 mM, 0.02 μg MaDA, 5 min, buffers pH 4.0-11.0
Experimental: The effects of different reaction temperatures (25, 30, 35, 40, 45, 50, 55, 60, and 70° C.) on [4+2] cyclization catalyzed by MaDA were investigated using Diene 3 and Dienophile 1 as substrates. The reaction system was as follows: the reaction mixture (100 μL) containing Diene 3 (0.1 mM) and Dienophile 1 (0.1 mM), and 0.02 μg MaDA was reacted for 5 min in Tris HCl buffer at pH 7.5 (the buffer solution was balanced at different temperatures for 15 min in advance). After the reaction, 200 μL ice-cold methanol was added to terminate the reaction, and vortex mixing was carried out. The resulting mixture was centrifuged at 15,000 g for 30 min. The supernatant was analyzed by HPLC. […] The conversion of the substrate was calculated by substituting the peak area of the product into the standard curve to calculate the reduction of the substrate.
The effects of buffer at different pH (pH 4.0-6.0, citric acid-sodium citrate buffer; 6.0-7.0, disodium hydrogen phosphate-sodium dihydrogen phosphate buffer; 7.0-9.0, Tris HCl buffer; 9.0-11.0, sodium carbonate-sodium bicarbonate buffer) on the [4+2] cyclization reaction of MaDA was investigated using Diene 3 and Dienophile 1 as substrates. […] The supernatant was analyzed by HPLC. […] The conversion of the substrate was calculated by substituting the peak area of the product into the standard curve to calculate the reduction of substrate.

Sequence of MaDA-2 (as listed by the source): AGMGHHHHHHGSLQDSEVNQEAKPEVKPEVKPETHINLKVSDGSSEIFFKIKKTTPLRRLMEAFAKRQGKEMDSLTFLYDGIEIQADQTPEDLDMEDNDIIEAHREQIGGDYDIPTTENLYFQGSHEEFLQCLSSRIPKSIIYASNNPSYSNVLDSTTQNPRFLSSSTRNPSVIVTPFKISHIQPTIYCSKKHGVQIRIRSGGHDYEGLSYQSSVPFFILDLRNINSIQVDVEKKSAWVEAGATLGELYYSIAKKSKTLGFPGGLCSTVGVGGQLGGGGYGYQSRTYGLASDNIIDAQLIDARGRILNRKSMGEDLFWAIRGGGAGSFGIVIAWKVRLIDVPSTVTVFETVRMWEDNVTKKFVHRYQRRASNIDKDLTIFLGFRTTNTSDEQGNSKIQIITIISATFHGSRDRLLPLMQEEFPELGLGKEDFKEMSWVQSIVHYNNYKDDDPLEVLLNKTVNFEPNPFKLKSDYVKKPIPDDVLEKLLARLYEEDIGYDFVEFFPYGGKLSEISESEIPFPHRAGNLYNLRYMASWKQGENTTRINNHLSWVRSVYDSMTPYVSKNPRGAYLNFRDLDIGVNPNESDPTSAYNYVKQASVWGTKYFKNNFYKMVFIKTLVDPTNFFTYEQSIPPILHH

Molecule	consumption of substrate with MaDA-1, chalcomoracin (4) produced (MaDA-1)	consumption of substrate with MaDA, chalcomoracin (4) produced (MaDA [1])	MaDA-2 catalysed reaction between dienophile and different dienes (MaDA-2)	conversion of dienophile (MaDA [2]; Diene 3 200 μM, dienophile 100 μM, MaDA or SUMO-MaDA 540 nM, pH 8.0, 50° C., 5 min, three repeated experiments)	effective recognition of dienophile by MaDA protein (MaDA [2]; same condition as the conversion test (540 nM enzyme, 50° C., 5 min))	optimum pH [3]
C=C(C)/C=C/c1c(O)cc(-c2cc3ccc(O)cc3o2)cc1O [Diene 3]	almost completely consumed	almost completely consumed				
morachalcone A [Dienophile 1]	almost completely consumed	almost completely consumed	can also catalyze the reaction	74%	effectively recognize	
B1						8.0
